Assay results published in US10456409B2 (priority 2016, dated 2019).
Where two headings read alike, the source gives them in different places.

What was measured:
Format in all cases: cell-based, mouse
[1] = system: bone marrow stromal cells (BMSC), first passage (P1); experiment: Alkaline phosphatase assay (NBT/BCIP staining) of primary BMSC (P1) in osteogenic media; details: primary BMSC P1, four days in osteogenic media; ATO 10 μM, Cholecalciferol 10 μM, Lovastatin 1 μM, NP101 diluted 1:1 or 1:10 (FIG. 1)
Protocol: (§1) Mesenchymal stem cells isolation: Bone marrow stromal cells were isolated from six to eight weeks old wild type mice. Femurs and tibias were dissected from surrounding tissues. The epiphyseal growth plates were removed and the marrow was collected by flushing with modified essential medium (MEM) containing 100 U/ml Penicillin, 100 μg/ml streptomycin and 10% fetal bovine serum with a 25 G needle. Single cell suspensions were prepared by passing the cell clumps through an 18G needle followed by filtration through a 70-μm cell strainer.
(§2) After cells reached confluence, medium was replaced with osteogenic differentiation medium (OM). Osteogenic differentiation medium (OM) consists of: DMEM, 10% FBS, Pen-Strep (1×), L-Glutamine (2 mM), 10 mM beta glycerol phosphate and 50 μg/ml ascorbic acid. Duplicate wells were exposed to differentiation media without any agent (control), single agent (Cholecalciferol, ATO or Lovastatin) or Nosto-101 combination agents. Media replacement occurred every 2-3 days with fresh differentiation medium (made each time during feeding) with or without single agent or Nosto-101.
Alkaline phosphatase assay: Cells were stained after 4 days exposure in OM differentiation medium for Alkaline Phosphatase (AP) assay. This is a colorimetric assay in which NBT (nitro-blue tetrazolium chloride) and BCIP (5-Bromo-4-chloro-3′-indolyphosphate p-toluidine salt) yields insoluble purple precipitate when reacted with alkaline phosphatase enzyme.
After 4 days of culturing cells in OM media, cells were fixed with 4% paraformaldehyde and then washed once with PBS. One ml of One-step NBT/BCIP staining solution (Thermo Fisher) was added per well and the cells were then incubated in the dark for 30 min to 1 h and checked for color development. The reaction was quickly stopped by removing NBT/BCIP and adding water.

[2] = system: Alkaline Phosphatase gene expression in BMSC culture; details: four days in OM media, control = 1.00
Protocol: as §1, §2
qRT-PCR: Total RNA was isolated first with Trizol (Invitrogen) and then with RNeasy Kit (Qiagen). First strand cDNA was generated using a High capacity cDNA reverse transcriptase kit (Abcam). qPCR was performed using a Biorad cycler at 40 cycles of 95° C. for 5 seconds and at 60° C. for 30 seconds. PCR product was detected using SybrGreen (BioRad). Primers used for amplifications were Actin: Forward 5′-CACAGCTTCTTTGCAGCTCCT-3′ (SEQ ID NO:1), Reverse 5′-CGT CAT CCA TGG CGA ACT G-3′ (SEQ ID NO:2); Alk Phos: Forward 5′-CACGCGATGCAACACTCAGG-3′ (SEQ ID NO:3), Reverse 5′-GCATGTCCCCGGGCTCAAAGA-3′ (SEQ ID NO:4).

[3] = system: BMSC cells primed for osteogenesis; details: BMSC primed with LCN2 and PRL, then osteogenic media with agent; ATO 10 μM, Cholecalciferol 10 μM, Lovastatin 1 μM, NP101 diluted 1:1 or 1:10 (FIG. 2)
Protocol: as §1
Priming cells for osteogenseis: An aliquot of cells was diluted 1:1 with 0.04% trypan blue in PBS and viable cells were plated at a density of 2×10^6 cells/cm^2 and in a 35-mm culture dish and exposed to recombinant mouse Prolactin (PRL) (1 ng/ml) and/or Lacritin 2(LCN2) (18 ng/ml) in Alpha MEM media with 20% FBS, L-Glutamine 2 mM and Pen-Strep (1×) for three passages to prime cells for osteogenesis. After the third passage, 50,000 bone marrow stromal cells per well were plated in a 24 well plate in Alpha MEM 20% FBS, L-Glutamine (4 mM), PenStrep (1×) and MEM Non-Essential Amino Acids (1×).
as §2
Alkaline phosphatase assay: Cells were stained after 4 days exposure in OM differentiation medium for Alkaline Phosphatase (AP) assay. This is a colorimetric assay in which NBT (nitro-blue tetrazolium chloride) and BCIP (5-Bromo-4-chloro-3′-indolyphosphate p-toluidine salt) yields insoluble purple precipitate when reacted with alkaline phosphatase enzyme. […]

| Compound | alkaline phosphatase activity (number of blue colored cells) [1] | ALP gene expression fold change ([2]; 10 μm agent) | ALP activity (presence of bluish/purple cells) [3] | ALP gene expression fold change ([2]; 1 μm agent) |
| --- | --- | --- | --- | --- |
| C=C1CC[C@H](O)C/C1=C/C=C1\CCC[C@]2(C)[C@@H]([C@H](C)CCCC(C)C)CC[C@@H]12 [Cholecalciferol] | decreases | 0.350 ± 0.02 fold | clearly diminish ALP activity |  |
| CC[C@H](C)C(=O)O[C@H]1C[C@@H](C)C=C2C=C[C@H](C)[C@H](CC[C@@H]3C[C@@H](O)CC(=O)O3)[C@H]21 [Lovastatin] | decreases |  | clearly diminish ALP activity | 0.316 ± 0.02 fold |
| Arsenic trioxide [ATO] | decreases | 0.105 ± 0.01 fold | clearly diminish ALP activity |  |
